What was measured:
[1] = system: five human tumor cell lines (CaCo-2, MCF-7, AGS, HeLa, NCI-H460); assay: SRB assay, statements over the five human tumor cell lines; assay type: cell-based; conditions: text statement over CaCo-2, MCF-7, AGS, read-out: GI50 in all tested human tumor cell lines
Description: (§1) The antitumor potential of the Sonogashira coupling products 2, tricyclic lactones 3 and 5, and tetracyclic lactones 7 was evaluated using the sulforhodamine B (SRB) assay against five human tumor cell lines: colorectal adenocarcinoma (CaCo-2), breast adenocarcinoma (MCF-7), gastric adenocarcinoma (AGS), cervical carcinoma (HeLa), and non-small cell lung cancer (NCI-H460). A primary pig liver cell culture (PLP2) was used to assess the toxicity of compounds.
The human tumor cell lines used were CaCo-2 (colorectal adenocarcinoma), MCF-7 (breast adenocarcinoma), AGS (gastric adenocarcinoma), HeLa (cervical carcinoma), NCI-H460 (lung carcinoma). Non-tumor cell lines were also tested: PLP2 (primary pig liver culture). All the cell lines were maintained in RPMI-1640 medium supplemented with 10% fetal bovine serum, glutamine (2 mM), penicillin (100 U/mL), and streptomycin ([…]), with the exception of PLP2, which was maintained in DMEM medium supplemented with fetal bovine serum (10%), glutamine and antibiotics. The culture flasks were incubated at 37 °C and with 5% CO2, under a humid atmosphere. The cells were used only when they had 70 to 80% confluence. […] Finally, an adhered SRB was solubilized with Tris (10 mM, 200 μL) and the absorbance at a wavelength of 540 nm was read in the Biotek ELX800 microplate reader. […]

[2] = MTT cytotoxicity in THP-1-derived macrophages; assay type: cell-based, human; conditions: human, THP-1-derived macrophages (PMA-differentiated); MTT, 72 h, tested 100 to 12.5 μM; read-out: CC50 Interval in THP-1-Derived Macrophages
Procedure, shortened: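 THP-1 cells differentiated into macrophages with 40 ng/mL PMA for 24 h plus 24 h in fresh medium, then exposed to compounds at 100 to 12.5 μM for 72 h at 37 °C, 5% CO2. Viability by MTT (0.5 mg/mL, 4 h), absorbance 570 nm; CC50 by non-linear regression, at least three independent experiments.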

[3] = system: PLP2 (primary pig liver cell culture); assay: SRB assay, toxicity in non-tumor PLP2 cells; assay type: cell-based; conditions: at the GI50 concentrations
Description: as §1
(§2) The human tumor cell lines used were CaCo-2 (colorectal adenocarcinoma), MCF-7 (breast adenocarcinoma), AGS (gastric adenocarcinoma), HeLa (cervical carcinoma), NCI-H460 (lung carcinoma). Non-tumor cell lines were also tested: PLP2 (primary pig liver culture). All the cell lines were maintained in RPMI-1640 medium supplemented with 10% fetal bovine serum, glutamine (2 mM), penicillin (100 U/mL), and streptomycin ([…]), with the exception of PLP2, which was maintained in DMEM medium supplemented with fetal bovine serum (10%), glutamine and antibiotics. The culture flasks were incubated at 37 °C and with 5% CO2, under a humid atmosphere. The cells were used only when they had 70 to 80% confluence. A known mass of each compound was dissolved in DMSO/H2O (1:1, 1 mL), in order to obtain the stock solutions with a concentration of 1 mM. […] Each compound concentration (10 μL) was incubated with the cell suspension (190 μL) of the cell lines tested in 96-well microplates for 72 h. The microplates were incubated at 37 °C and with 5% CO2 in a humid atmosphere after checking the adherence of the cells. All cell lines were tested at a concentration of 10,000 cells/well. After the incubation period, the cells were treated: TCA (10% w/v; 100 μL) was previously cooled, and plates were incubated for 1 h at 4 °C, washed with water, and, after drying, a SRB solution (0.057%, m/v; 100 μL) was added and left to stand at room temperature for 30 min. To remove non-adhered SRB, plates were washed three times with a solution of acetic acid (1% v/v) and placed to dry. Finally, an adhered SRB was solubilized with Tris (10 mM, 200 μL) and the absorbance at a wavelength of 540 nm was read in the Biotek ELX800 microplate reader. The results obtained by the SRB assay were expressed regarding the concentration compounds that can inhibit cell growth by 50%—GI50. Doxorubicin was used as a positive control.

[4] = SRB assay, toxicity in non-tumor PLP2 cells; assay type: cell-based, pig; conditions: PLP2 primary pig liver cells (non-tumor); non-tumor primary pig liver cells, SRB assay, 72 h, mean ± standard deviation
Description: as §1, §2

Row | SMILES | GI50 [1] [µM] | CC50 at 72 h [2] [µM] | toxicity in PLP2 cells (in words) [3] | GI50 at 72 h [4] [µM]
1 | COC(=O)c1sc2nccnc2c1C#Cc1ccccn1 [Compound 2f, Methyl 7-(pyridin-2-ylethynyl)thieno[2,3-b]pyrazine-6-carboxylate] | < 10 | 25 to 100 | without significant toxicity | 57.9 ± 4.31
2 | O=c1oc(-c2ccccn2)cc2c1sc1nccnc12 [Compound 3f, 8-(Pyridin-2-yl)-6H-pyrano[4′,3′:4,5]thieno[2,3-b]pyrazin-6-one] | < 10 | – | low toxicity | > 125

— paper PMC12073635, “Synthesis of Tricyclic and Tetracyclic Lactone Derivatives of Thieno[2,3-b]pyrazine or Thieno[2,3-b]quinoline: Preliminary Antitumor and Antiparasitic Activity Evaluation” (Molecules, 2025)
